Experiment: Squalene degradation test with free-radical initiator V65 (protective factor QS, synergy with tocopherol)
Parameters: key to QS: QS = degradation rate without stabilizer / degradation rate with it
Settings: squalene content by GC; for QS: 250 ppm test substance in 2% azobis(2,4-dimethylvaleronitrile) in squalene, stored open 30 days at 40° C., QSx=degradation rate0/degradation ratex; for QS + 250 ppm Tocopherol: 250 ppm test substance plus 250 ppm tocopherol in 2% azobis(2,4-dimethylvaleronitrile) in squalene, 30 days at 40° C.
Experimental: General procedure for determining the synergistic effect of peroxide decomposers used according to the invention with tocopherol
3 ml of a 2% strength solution of azobis(2,4.dimethylvaleronitrile). (V65, Wako Chemical Co.) in squalene are poured together with 250 ppm of test substance (based on the squalene solution) into Fiolax test tubes ([…]) and thoroughly mixed using a laboratory shaker. The samples are then stored open in a circulatory drying cabinet for 30 days at 40° C. At intervals of 7 days, the squalene content of the samples is ascertained using gas chromatography. The reference used is a sample without the […]. The data points are documented in an XY graph and the effectiveness of the test substances is determined by reference to the slope of the decomposition curves in comparison to the reference sample.
A measure of the protective effect of a test compound is the factor QS, which is a measure of how much a stabilizer reduces the degradation rate. QSx=degradation rate0/degradation ratex

Row | Compound | QS | QS + 250 ppm Tocopherol
1 | Sc1nccs1 [compound 3] | 2.75 | 4.25
2 | S=c1cc[nH]c(=S)[nH]1 [compound 4] | 1.13 | 2.08
3 | CCCc1cc(O)nc(S)n1 [compound 5] | 2.58 | 4.44
4 | S=C1CSc2ccccc2N1 [compound 6] | 3.03 | 3.75
5 | On1ccccc1=S [compound 7] | 1.47 | 2.58
6 | Sc1nnc(-c2ccccc2)[nH]1 [compound 8] | 1.34 | 1.8
7 | Oc1cccnc1S [compound 9] | 1.66 | 2.25
8 | O=C(O)c1cccnc1S [compound 10] | 1.18 | 1.65
9 | Tocopherol [reference compound] | 1.3 | 

Reference: patent US20080193397A1, “Use of Peroxide Decomposers Method For the Treatment of a Material Other Than the Human Body” (BASF Aktiengesellscaft, priority 2005, published 2008)
